Here are results for 19 molecules from ChEMBL document CHEMBL1155122, “Design and optimization of aniline-substituted tetrahydroquinoline C5a receptor antagonists” (Bioorg Med Chem Lett, 2008).

For data set [1], the target named is T1, C5a anaphylatoxin chemotactic receptor 1 (Homo sapiens, UniProt P21730).
T1 sequence (P21730 whole entry): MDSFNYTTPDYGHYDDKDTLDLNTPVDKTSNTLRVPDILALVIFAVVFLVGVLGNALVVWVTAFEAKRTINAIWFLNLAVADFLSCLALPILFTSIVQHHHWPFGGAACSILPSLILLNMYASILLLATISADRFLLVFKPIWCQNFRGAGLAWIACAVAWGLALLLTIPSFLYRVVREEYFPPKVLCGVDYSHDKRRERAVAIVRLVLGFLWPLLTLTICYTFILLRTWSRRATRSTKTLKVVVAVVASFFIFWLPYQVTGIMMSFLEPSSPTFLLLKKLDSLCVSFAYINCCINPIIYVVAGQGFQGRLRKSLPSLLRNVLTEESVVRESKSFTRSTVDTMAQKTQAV
As to the kind of experiment: Antagonist activity at human recombinant C5a receptor in U937 cells assessed as inhibition of C5a-induced calcium mobilization by FLIPR assay. It is filed as functional, cell-based, U-937. In general terms: Calcium assays in cells follow changes in intracellular calcium, usually with a dye or a luminescent sensor.

Data set [2] can be described thus: Half life in rat at 2 mg/kg, iv. It is filed as ADME, organism-based. The arrangement: dose 2 mg/kg, route intravenous. The following applies: in vivo.
Data set [3] deals with Rattus norvegicus. Description: AUC in rat at 10 mg/kg, po. It is filed as ADME, organism-based, Plasma. The arrangement: dose 10 mg/kg, route oral. The conditions noted are these: in vivo.
Data set [4] is described as follows: Half life in rat at 10 mg/kg, po. The data set is classed as ADME, organism-based. On the set-up: dose 10 mg/kg, route oral. The conditions noted are these: in vivo.
Data set [5] is described as follows: Oral bioavailability in rat at 10 mg/kg. The following applies: in vivo. It is filed as ADME, organism-based.
Data set [6] can be described thus: Clearance in rat at 2 mg/kg, iv. The data set is classed as ADME, organism-based. On the set-up: dose 2 mg/kg, route intravenous. The conditions noted are these: in vivo.
The subject of data set [7] is Rattus norvegicus. Description: Cmax in rat at 10 mg/kg, po. It is filed as ADME, organism-based. The arrangement: dose 10 mg/kg, route oral. The conditions noted are these: in vivo.
Data set [8] in a line: Volume of distribution at steady state in rat at 2 mg/kg, iv. The data set is classed as ADME, organism-based. On the set-up: dose 2 mg/kg, route intravenous. The following applies: in vivo, read-out: Vdss.
Data set [9] concerns the target T1, C5a anaphylatoxin chemotactic receptor 1. Description: Displacement of [125I]C5a from human recombinant C5a receptor in U937 cells. It is filed as cell-based, U-937.

The structures appear in SMILES notation. pIC50, pKi: −log10 of the molar value.

As for `CCc1cccc(CC)c1-c1cc(OC)c2c(n1)CCCC2Nc1cc(F)ccc1C` (stereo unspecified), in [1], the negative logarithm of the IC50 (pIC50) was 5.85.

Take `CCc1cccc(CC)c1-c1cc(OC(C)C)c2c(n1)CCCC2Nc1ccccc1CCO` (racemic): in data set [1], the negative logarithm of the IC50 (pIC50) was 8.15.

`COc1cccc(N(C)C2CCCc3nc(-c4c(C)cccc4C)cc(OC)c32)c1C` (racemic): the pIC50 in data set [1] is under 5.00.

For the molecule `CCc1cccc(CC)c1-c1cc(OC)c2c(n1)CCCC2N(C)c1cc(Cl)ccc1C` (racemic), the negative-log IC50 (pIC50) in [1] was 5.59.

On to `CCc1cccc(CC)c1-c1cc(OC)c2c(n1)CCCC2Nc1cc(OC)ccc1C` (stereo unspecified), for which the half-life was 6.3 h in data set [2] and 5.3 h in data set [4]. In [3], this molecule came in with an area under the curve (AUC) of 700 ng·h/mL. Further, the negative-log IC50 (pIC50) in data set [1] was 6.85. The molecule also displayed a bioavailability in [5] of 21%. In data set [6], this molecule returned a clearance of 21 mL/min/kg. Moreover, the highest level in data set [7] (Cmax) was 290 ng/mL. In addition, in [8], the Vd amounted to 4.5 L/kg.

Turning to `CCc1cccc(CC)c1-c1cc(OC)c2c(n1)CCCC2Nc1ccccc1C(=O)OC` (stereo unspecified), the pIC50 in data set [1] is under 5.00.

Regarding `COc1cc(-c2c(C)cccc2C)nc2c1C(N(C)c1c(C)cccc1C)CCC2` (racemic), the pIC50 in [1] was under 5.00.

Take `CCc1cccc(CC)c1-c1cc(OC)c2c(n1)CCCC2Nc1cc(-c2ccccc2)ccc1C` (stereo unspecified): the pIC50 in [1] is 5.60.

Consider `CCc1cccc(CC)c1-c1cc(OC)c2c(n1)CCCC2Nc1cc(CO)ccc1C` (stereo unspecified), for which the negative logarithm of the IC50 (pIC50) in data set [1] is under 5.00.

Regarding `CCc1cccc(CC)c1-c1cc(OC)c2c(n1)CCCC2Nc1cc(C)ccc1C` (stereo unspecified), the pIC50 in data set [1] was 6.37.

As for `CCc1cccc(CC)c1-c1cc(OC)c2c(n1)CCCC2Nc1ccccc1C(N)=O` (stereo unspecified), the pIC50 in [1] was under 5.00.

Consider `CCc1cccc(CC)c1-c1cc(OC)c2c(n1)CCCC2Nc1ccc(OC)cc1C` (stereo unspecified), for which the pIC50 in data set [1] was 5.62.

For the molecule `CCc1cccc(CC)c1-c1cc(OC)c2c(n1)CCCC2Nc1cc(OC)ccc1-c1ccccc1` (stereo unspecified), the pIC50 in [1] was under 5.00.

Take `CCc1cccc(CC)c1-c1cc(OC)c2c(n1)CCCC2Nc1cc(O)ccc1C` (stereo unspecified): the negative-log IC50 (pIC50) in data set [1] is under 5.00.

Turning to `CCc1cccc(CC)c1-c1cc(OC)c2c(n1)CCCC2N(C)c1cc(OC)ccc1OC` (racemic), the pIC50 in data set [1] is 5.59.

Consider `CCc1cccc(CC)c1-c1cc(OC)c2c(n1)CCCC2Nc1ccccc1CCO` (stereo unspecified), for which, in data set [9], the negative logarithm of the Ki (pKi) was 7.68.

In the case of `CCc1cccc(CC)c1-c1cc(OC)c2c(n1)CCCC2N(C)c1cc(-c2ccccc2)ccc1C` (racemic), the negative logarithm of the IC50 (pIC50) in data set [1] is under 5.00.

As for `CCc1cccc(CC)c1-c1cc(OC)c2c(n1)CCCC2Nc1ccccc1C(C)=O` (stereo unspecified), the negative logarithm of the IC50 (pIC50) in data set [1] is under 5.00.

On to `CCc1cccc(CC)c1-c1cc(OC)c2c(n1)CCCC2Nc1ccccc1CO` (stereo unspecified), for which the pIC50 in [1] was 6.92.

One may read the pIC50 as the negative decadic logarithm of the IC50, by convention in mol/L. As a reminder, the half-life is how long it takes for the measured level to halve. A lower half-life goes with fast loss. As usually defined, the AUC is the area under the concentration-time curve, a measure of exposure. A low value points to less exposure. Broadly, the bioavailability is dose-corrected exposure relative to a reference, in per cent. A high value points to much systemic uptake. A word on the clearance: it is the volume of plasma or blood freed of the substance per unit of time. Lower therefore signals a low capacity for elimination. What is called Cmax is the highest concentration seen after dosing. By pKi is commonly meant −log10 of the Ki, conventionally taken in molar units.
